According to patent US7348300B2, “Acetylenic diol ethylene oxide/propylene oxide adducts and processes for their manufacture” (Air Products and Chemicals, Inc., priority 1999, dated 2008):
Read-outs that look alike come from different tables or passages of the source.

What was measured:
[1] = Equilibrium surface tension, Wilhemy plate method; format: physicochemical; conditions: 0.1 wt %
Experimental: Process solutions containing 0.1 weight percent of a surfactant derived from 2,5,8,11-tetramethyl-6-dodecyne-5,8-diol or containing a fluorosurfactant, potassium perfluorooctane carboxylate provided by 3M of St. Louis, Mo. were prepared in order to compare the equilibrium surface tension (EST) and dynamic surface tension (DST). The EST for both solutions was measured using the Wilhemy plate method on a Kruss BP3 bubble pressure tensiometer manufactured by Kruss, Inc. of Charlotte, N.C.

[2] = Ross-Miles foam test based upon ASTM D 1173-53; format: physicochemical; conditions: 0.1 wt % solution
Experimental: In this test, a 0.1 wt % solution of the surfactant is added from an elevated foam pipette to a foam receiver containing the same solution. The foam height is measured at the completion of the addition (“Initial Foam Height”) and the time required for the foam to dissipate is recorded (“Time to 0 Foam”). This test provides a comparison between the foaming characteristics of various surfactant solutions. In general, in coatings, inks, and agricultural formulations, foam is undesirable because is complicates handling and can lead to coating and print defects, and to inefficient application of agricultural materials.

[3] = Dynamic surface tension of aqueous solutions, maximum bubble pressure method
Source text: In the following Examples dynamic surface tension data were obtained for aqueous solutions of various compounds using the maximum bubble pressure method at bubble rates from 0.1 bubbles/second (b/s) to 20 b/s. […] In practical terms, high bubble rates correspond to high printing speeds in lithographic printing, high spray or roller velocities in coating applications, and rapid application rates for agricultural products.
This value is a measure of the efficiency of a surfactant.
The critical aggregation concentrations (solubility limit or critical micelle concentration) were determined by intersection of the linear portion of a surface tension/ In concentration curve with the limiting surface tension as is described in many textbooks. […]
Process solutions containing 0.1 weight percent of a surfactant derived from 2,5,8,11-tetramethyl-6-dodecyne-5,8-diol or containing a fluorosurfactant, potassium perfluorooctane carboxylate provided by 3M of […]. were prepared in order to compare the equilibrium surface tension (EST) and dynamic surface tension (DST). The EST for both solutions was measured using the Wilhemy plate method on a […] manufactured by Kruss, Inc. of Charlotte, N.C. The DST of each process solution was measured via the maximum bubble pressure method.

RM Foam initial (Initial Foam Height) [2] [cm] | RM Foam t to 0 (Time to 0 Foam) [2] [s] | Sol Limit / critical aggregation concentration (CAG) [3] [wt %] | RM Foam, foam height after 5 minutes [2] [cm] | Sol Limit / critical aggregation concentration (CAG) ([3]; solubility limit or critical micelle concentration in water) | Molecule | EST [1] [dyne/cm]
– | – | – | – | – | O=C([O-])C(F)(F)C(F)(F)C(F)(F)C(F)(F)C(F)(F)C(F)(F)C(F)(F)C(F)(F)F.[K+] [Fluorosurfactant, potassium perfluorooctane carboxylate, reference compound] | 21.2
1.0 | 10 | 0.21 | – | – | 3.5 mole ethoxylate of 2,4,7,9-tetramethyl-5-decyne-4,7-diol capped with 2 moles of propylene oxide [Example 3] | –
2.1 | – | – | 1.3 | (0.78) wt % | 10 mole EO/2 mole PO block derivative of 2,4,7,9-tetramethyl-5-decyne-4,7-diol [Example 5] | –
